Measured values as given in patent US11413321B2, “Pharmaceutical composition for use in increasing hair, modifying scalp or skin, healing a wound, promoting osteogenesis, or modifying hair” (priority 2017, dated 2022).

Tested on: full-thickness skin defect
Experiment: Wound healing score, circular full-thickness skin defect on the dorsal part
Format: in vivo, Wistar rat
Details: 20 μL administration liquid containing 1 mg of the fatty acid at each of four locations; FIG. 6C
Procedure: Formation of wounds: hair on the dorsal part of a 12-week-old Wistar rat was shaven with hair clippers, and a circular full-thickness skin defect with a diameter of 8 mm was produced on each of the left and right sides of the head and the left and right sides of the tail. The full-thickness skin defect was formed at four locations per body.
Administration of milk: 20 μL of milk was subcutaneously injected at each of four locations, namely upper, lower, left and right, in a place 4 mm away from the peripheral edge of the wound. As the milk, the commercially available bovine milk sterilized by heating (at 130 degrees for 2 seconds and 65 degrees for 30 minutes) as described in Example 1 was used.
Administration of fatty acid: As a fatty acid contained in the milk, sterile purified water (administration liquid) containing palmitic acid, stearic acid, myristic acid, linolenic acid, α-linoleic acid and oleic acid, respectively was administered. Here, the water was heated and administered for the saturated fatty acids, and the water was administered at room temperature for the unsaturated fatty acids. 20 μL of the administration liquid (containing 1 mg of the fatty acid) was subcutaneously administered at each of four locations, namely upper, lower, left and right, in a place 4 mm away from the peripheral edge of the wound.
Score 4: The reduction ratio of the area of the wound site is 70% or more.
Score 3: The reduction ratio of the area of the wound site is 50% or more and less than 70%.
Score 2: The reduction ratio of the area of the wound site is 20% or more and less than 50%.
Score 1: The reduction ratio of the area of the wound site is less than 20%.
The result was given as a ratio obtained by dividing the above score by the score for physiological saline.
Two tubes of 8 mL of commercially available milk sterilized at a low temperature (65 degrees for 30 minutes) were centrifuged by a centrifugal separator (2600 g×6 minutes), 2 mL of one fourth of the supernatant exclusive of a whip portion was collected from each tube, the two collected liquids were combined to obtain 4 mL of a liquid, and 4 mL of the resulting liquid was stirred, and used for experiments (hereinafter, the obtained sample is referred to as a “centrifuged sample”). The obtained centrifuged sample was administered to the wound site at a dosage of 20 μL per location in the same manner as described above. The results are shown in “Centrifuged Sample” in FIG. 6A.
Next, a wound healing-promoting effect of lactoferrin was examined. As lactoferrin, Nice rim essence 62971 (trade name) purchased from Lion Corporation was used and administered at one location in an amount of 20 μg or 60 μg in the same manner as described above. Specifically, the lactoferrin was ground, and then thoroughly dissolved in purified water. The lactoferrin concentration was adjusted so that an injection amount of 20 μL included the above administration amount. The result was given as a value obtained by dividing each of scores after seven days and after ten days by the score for the physiological saline administration group.

`CCCCCCCCCCCCCCCC(=O)O` [palmitic acid] was tested, and the “wound healing-promoting effect (score divided by the score for physiological saline)” value was “high promoting effect”.
